This test deals with T1, Human Neuropeptide Y2 Receptor (Homo sapiens, UniProt P49146).
T1 construct: purchased CHEMICON HTS066M
T1 sequence (P49146 1-381): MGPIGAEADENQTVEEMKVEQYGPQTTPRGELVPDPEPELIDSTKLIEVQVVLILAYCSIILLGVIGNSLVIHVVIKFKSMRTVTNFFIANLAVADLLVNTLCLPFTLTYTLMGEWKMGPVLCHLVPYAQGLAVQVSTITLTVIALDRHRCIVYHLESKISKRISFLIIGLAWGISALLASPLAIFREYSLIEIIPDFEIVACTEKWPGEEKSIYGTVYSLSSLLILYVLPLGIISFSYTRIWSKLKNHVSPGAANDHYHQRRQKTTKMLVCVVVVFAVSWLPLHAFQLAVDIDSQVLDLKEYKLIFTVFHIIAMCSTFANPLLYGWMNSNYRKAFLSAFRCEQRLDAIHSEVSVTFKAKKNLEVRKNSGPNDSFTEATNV
Put plainly: Radioligand binding competition assay (RLB). The note with it: Table 3; human 125I-PYY (1-36) 0.02 nM, Y2 receptor membranes; read-out: Ki. The method, boiled down:
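Competition binding at commercial human NPY Y2 membrane preparations, 0.5 μg protein per well, 2 h incubation at room temperature. Bound and free ligand were separated on GF/C filters and counted; IC50 was fitted by nonlinear regression.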

Molecules are shown by their SMILES.

Regarding `CC(C)CC(=O)N[C@@H](C)C(=O)N1CCC[C@H]1C(=O)N[C@@H](CCC(=O)O)C(=O)N[C@@H](CCCCNC(=O)COCCOCCNC(=O)COCCOCCNC(=O)CC[C@H](NC(=O)CCCCCCCCCCCCCCCCC(=O)O)C(=O)O)C(=O)N1CCC[C@H]1C(=O)N[C@@H](CCC(=O)O)C(=O)N[C@@H](CCC(=O)O)C(=O)N[C@@H](CC(=O)O)C(=O)N[C@@H](C)C(=O)N[C@@H](C)C(=O)N1CCC[C@H]1C(=O)N[C@@H](CCC(=O)O)C(=O)N[C@@H](CCC(=O)O)C(=O)N[C@@H](CC(C)C)C(=O)N[C@@H](CCC(N)=O)C(=O)N[C@@H](CCCNC(=N)N)C(=O)N[C@@H](Cc1ccc(O)cc1)C(=O)N[C@@H](Cc1ccc(O)cc1)C(=O)N[C@H](C(=O)N[C@@H](CO)C(=O)N[C@@H](CC(C)C)C(=O)N[C@@H](CCCNC(=N)N)C(=O)N[C@@H](Cc1c[nH]cn1)C(=O)N[C@@H](Cc1ccc(O)cc1)C(=O)N[C@@H](Cc1ccc(O)cc1)C(=O)N[C@@H](CC(N)=O)C(=O)N[C@@H](Cc1c[nH]c2ccccc12)C(=O)N[C@@H](CC(C)C)C(=O)N[C@H](C(=O)N[C@@H](CCCNC(=N)N)C(=O)N[C@@H](CCC(N)=O)C(=O)N[C@@H](CCCNC(=N)N)C(=O)N[C@@H](Cc1ccc(O)cc1)C(N)=O)[C@@H](C)O)C(C)C` [Compound 122, N{alpha-4}-(3-methylbutanoyl)-N{epsilon-7}-[2-(2-{2-[2-(2-{2-[(4S)-4-carboxy-4-(17-carboxyheptadecanamido)butanamido]ethoxy}ethoxy)acetamido]ethoxy}ethoxy)acetamido]-[4A,7K,9E,13A,18Q,22V,28Y,30W,31L]hPYY (4-36)], the inhibitory constant (Ki) came out at 1.84 nM.

For the compound `CC(C)CC(=O)N[C@@H](C)C(=O)N1CCC[C@H]1C(=O)N[C@@H](C)C(=O)N[C@@H](CCCCNC(=O)COCCOCCNC(=O)COCCOCCNC(=O)CC[C@H](NC(=O)CCCCCCCCCCCCCCCCC(=O)O)C(=O)O)C(=O)N1CCC[C@H]1C(=O)N[C@@H](CCC(=O)O)C(=O)N[C@@H](CCC(=O)O)C(=O)N[C@@H](CC(=O)O)C(=O)N[C@@H](CO)C(=O)N[C@@H](CO)C(=O)N1CCC[C@H]1C(=O)N[C@@H](CCC(=O)O)C(=O)N[C@@H](CCC(=O)O)C(=O)N[C@@H](CC(C)C)C(=O)N[C@@H](CCC(N)=O)C(=O)N[C@@H](CCCNC(=N)N)C(=O)N[C@@H](Cc1ccc(O)cc1)C(=O)N[C@@H](Cc1ccc(O)cc1)C(=O)N[C@H](C(=O)N[C@@H](CO)C(=O)N[C@@H](CC(C)C)C(=O)N[C@@H](CCCNC(=N)N)C(=O)N[C@@H](Cc1c[nH]cn1)C(=O)N[C@@H](Cc1ccc(O)cc1)C(=O)N[C@@H](Cc1ccc(O)cc1)C(=O)N[C@@H](CC(N)=O)C(=O)N[C@@H](Cc1c[nH]c2ccccc12)C(=O)N[C@@H](CC(C)C)C(=O)N[C@H](C(=O)N[C@@H](CCCNC(=N)N)C(=O)N[C@@H](CCC(N)=O)C(=O)N[C@@H](CCCNC(=N)N)C(=O)N[C@@H](Cc1ccc(O)cc1)C(N)=O)[C@@H](C)O)C(C)C` [Compound 126, N{alpha-4}-(3-methylbutanoyl)-N{epsilon-7}-[2-(2-{2-[2-(2-{2-[(4S)-4-carboxy-4-(17-carboxyheptadecanamido)butanamido]ethoxy}ethoxy)acetamido]ethoxy}ethoxy)acetamido]-[4A,6A,7K,9E,12S,18Q,22V,28Y,30W,31L]hPYY (4-36)], the inhibition constant Ki came to 1.18 nM. The figure for `CC(C)CC(=O)N[C@@H](C)C(=O)N1CCC[C@H]1C(=O)N[C@@H](CCC(=O)O)C(=O)N[C@@H](CCCCNC(=O)COCCOCCNC(=O)COCCOCCNC(=O)CC[C@H](NC(=O)CCCCCCCCCCCCCCCCC(=O)O)C(=O)O)C(=O)N1CCC[C@H]1C(=O)N[C@@H](CCC(=O)O)C(=O)N[C@@H](CCC(=O)O)C(=O)N[C@@H](CC(=O)O)C(=O)N[C@H](C(=O)N[C@@H](CO)C(=O)N[C@@H](C)C(=O)N[C@@H](CCC(=O)O)C(=O)N[C@@H](CCC(=O)O)C(=O)N[C@@H](CC(C)C)C(=O)N[C@@H](CCC(N)=O)C(=O)N[C@@H](CCCNC(=N)N)C(=O)N[C@@H](Cc1ccc(O)cc1)C(=O)N[C@@H](Cc1ccc(O)cc1)C(=O)N[C@H](C(=O)N[C@@H](CO)C(=O)N[C@@H](CC(C)C)C(=O)N[C@@H](CCCNC(=N)N)C(=O)N[C@@H](Cc1c[nH]cn1)C(=O)N[C@@H](Cc1ccc(O)cc1)C(=O)N[C@@H](Cc1ccc(O)cc1)C(=O)N[C@@H](CC(N)=O)C(=O)N[C@@H](Cc1c[nH]c2ccccc12)C(=O)N[C@@H](CC(C)C)C(=O)N[C@H](C(=O)N[C@@H](CCCNC(=N)N)C(=O)N[C@@H](CCC(N)=O)C(=O)N[C@@H](CCCNC(=N)N)C(=O)N[C@@H](Cc1ccc(O)cc1)C(N)=O)[C@@H](C)O)C(C)C)[C@@H](C)O` [Compound 130, N{alpha-4}-(3-methylbutanoyl)-N{epsilon-7}-[2-(2-{2-[2-(2-{2-[(4S)-4-carboxy-4-(17-carboxyheptadecanamido)butanamido]ethoxy}ethoxy)acetamido]ethoxy}ethoxy)acetamido]-[4A,7K,9E,12T,14A, 18Q,22V,28Y,30W,31L]hPYY (4-36)] is 11.1 nM. The figure for `CC(C)CC(=O)N[C@@H](C)C(=O)N1CCC[C@H]1C(=O)N[C@@H](CCC(=O)O)C(=O)N[C@@H](CCCCNC(=O)COCCOCCNC(=O)COCCOCCNC(=O)CC[C@H](NC(=O)CCCCCCCCCCCCCCCCC(=O)O)C(=O)O)C(=O)N[C@@H](C)C(=O)N[C@@H](CCC(=O)O)C(=O)N[C@@H](CCC(=O)O)C(=O)N[C@@H](CC(=O)O)C(=O)N[C@@H](C)C(=O)N[C@@H](CO)C(=O)N1CCC[C@H]1C(=O)N[C@@H](CCC(=O)O)C(=O)N[C@@H](CCC(=O)O)C(=O)N[C@@H](CC(C)C)C(=O)N[C@@H](CCC(N)=O)C(=O)N[C@@H](CCCNC(=N)N)C(=O)N[C@@H](Cc1ccc(O)cc1)C(=O)N[C@@H](Cc1ccc(O)cc1)C(=O)N[C@H](C(=O)N[C@@H](CCC(=O)O)C(=O)N[C@@H](CC(C)C)C(=O)N[C@@H](CCCNC(=N)N)C(=O)N[C@@H](Cc1c[nH]cn1)C(=O)N[C@@H](Cc1ccc(O)cc1)C(=O)N[C@@H](Cc1ccc(O)cc1)C(=O)N[C@@H](CC(N)=O)C(=O)N[C@@H](Cc1c[nH]c2ccccc12)C(=O)N[C@@H](CC(C)C)C(=O)N[C@H](C(=O)N[C@@H](CCCNC(=N)N)C(=O)N[C@@H](CCC(N)=O)C(=O)N[C@@H](CCCNC(=N)N)C(=O)N[C@@H](Cc1ccc(O)cc1)C(N)=O)[C@@H](C)O)C(C)C` [Compound 131, N{alpha-4}-(3-methylbutanoyl)-N{epsilon-7}-[2-(2-{2-[2-(2-{2-[(4S)-4-carboxy-4-(17-carboxyheptadecanamido)butanamido]ethoxy}ethoxy)acetamido]ethoxy}ethoxy)acetamido]-[4A,7K,8A,9E,18Q,22V,23E,28Y,30W,31L]hPYY (4-36)] is 8.54 nM; for `CC[C@H](C)[C@H](NC(=O)[C@H](CCC(=O)O)NC(=O)[C@H](CCC(=O)O)NC(=O)[C@@H]1CCCN1C(=O)[C@H](CO)NC(=O)[C@H](C)NC(=O)[C@H](CC(=O)O)NC(=O)[C@H](CCC(=O)O)NC(=O)[C@H](CCC(=O)O)NC(=O)[C@@H]1CCCN1C(=O)[C@H](CCCCNC(=O)COCCOCCNC(=O)COCCOCCNC(=O)CC[C@H](NC(=O)CCCCCCCCCCCCCCCCC(=O)O)C(=O)O)NC(=O)[C@H](CCC(=O)O)NC(=O)[C@@H]1CCCN1C(=O)[C@H](C)NC(=O)CC(C)C)C(=O)N[C@@H](CCC(N)=O)C(=O)N[C@@H](CCCNC(=N)N)C(=O)N[C@@H](Cc1ccc(O)cc1)C(=O)N[C@@H](Cc1ccc(O)cc1)C(=O)N[C@H](C(=O)N[C@@H](CCC(=O)O)C(=O)N[C@@H](CC(C)C)C(=O)N[C@@H](CCCNC(=N)N)C(=O)N[C@@H](Cc1c[nH]cn1)C(=O)N[C@@H](Cc1ccc(O)cc1)C(=O)N[C@@H](Cc1ccc(O)cc1)C(=O)N[C@@H](CC(N)=O)C(=O)N[C@@H](Cc1c[nH]c2ccccc12)C(=O)N[C@@H](CC(C)C)C(=O)N[C@H](C(=O)N[C@@H](CCCNC(=N)N)C(=O)N[C@@H](CCC(N)=O)C(=O)N[C@@H](CCCNC(=N)N)C(=O)N[C@@H](Cc1ccc(O)cc1)C(N)=O)[C@@H](C)O)[C@@H](C)O` [Compound 134, N{alpha-4}-(3-methylbutanoyl)-N{epsilon-7}-[2-(2-{2-[2-(2-{2-[(4S)-4-carboxy-4-(17-carboxyheptadecanamido)butanamido]ethoxy}ethoxy)acetamido]ethoxy}ethoxy)acetamido]-[4A,7K,9E,17I,18Q,22T,23E,28Y,30W,31L]hPYY (4-36)] it is 1.17 nM.

For `CC(C)CC(=O)N[C@@H](C)C(=O)N1CCC[C@H]1C(=O)N[C@@H](CCC(=O)O)C(=O)N[C@@H](CCCCNC(=O)COCCOCCNC(=O)COCCOCCNC(=O)CC[C@H](NC(=O)CCCCCCCCCCCCCCCCC(=O)O)C(=O)O)C(=O)N1CCC[C@H]1C(=O)N[C@@H](CCC(=O)O)C(=O)N[C@@H](C)C(=O)N[C@@H](CC(=O)O)C(=O)N[C@@H](C)C(=O)N[C@@H](CO)C(=O)N1CCC[C@H]1C(=O)N[C@@H](CCC(=O)O)C(=O)N[C@@H](CCC(=O)O)C(=O)N[C@@H](CC(C)C)C(=O)N[C@@H](CCC(N)=O)C(=O)N[C@@H](CCCNC(=N)N)C(=O)N[C@@H](Cc1ccc(O)cc1)C(=O)N[C@@H](Cc1ccc(O)cc1)C(=O)N[C@H](C(=O)N[C@@H](CCC(=O)O)C(=O)N[C@@H](CC(C)C)C(=O)N[C@@H](CCCNC(=N)N)C(=O)N[C@@H](Cc1c[nH]cn1)C(=O)N[C@@H](Cc1ccc(O)cc1)C(=O)N[C@@H](Cc1ccc(O)cc1)C(=O)N[C@@H](CC(N)=O)C(=O)N[C@@H](Cc1c[nH]c2ccccc12)C(=O)N[C@@H](CC(C)C)C(=O)N[C@H](C(=O)N[C@@H](CCCNC(=N)N)C(=O)N[C@@H](CCC(N)=O)C(=O)N[C@@H](CCCNC(=N)N)C(=O)N[C@@H](Cc1ccc(O)cc1)C(N)=O)[C@@H](C)O)C(C)C` [Compound 135, N{alpha-4}-(3-methylbutanoyl)-N{epsilon-7}-[2-(2-{2-[2-(2-{2-[(4S)-4-carboxy-4-(17-carboxyheptadecanamido)butanamido]ethoxy}ethoxy)acetamido]ethoxy}ethoxy)acetamido]-[4A,7K,9E,10A,18Q,22V,23E,28Y,30W,31L]hPYY (4-36)], the Ki was found to be 1.31 nM.

These data come from patent US12559529B2, “NPY2 receptor agonists” (Boehringer Ingelheim International GmbH, priority 2019, dated 2026).
